Reference: patent publication US6225478A, “Iridoid derivatives and neovascularization inhibitors containing the same as active ingredient” (Tsumura & Co., priority 1999, dated 2001)

test system: HUFEC; test: Cell Migration Assay (CMA) Test, inhibitory rate with control (-) correction; type: cell-based, human; details: Homo sapiens, 24 h, 125 μl of 0.32 mM sample solution in 4.0 ml medium, 80% or more = remarkable
Method in brief: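 Confluent HUFEC monolayers were scratch-wounded, then cultured 24 h at 37 °C, 5% CO2 in M199 (2+) medium with compound added as 125 μl of a 0.32 mM solution (3.2% DMSO) per 4 ml. Giemsa-stained cells migrating into 1 mm×1 mm blocks counted; inhibition % calculated relative to control (+) and control (−) wells.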

How did the inhibition at 320 µM (stock) turn out when `COC(=O)C1=CO[C@@H](OC(=O)NCCSCc2ccccc2)[C@H]2[C@@H]1CC[C@@H]2C` [I-253] was run?
The inhibition at 320 µM (stock) was 25.1%.

How did the inhibition at 320 µM (stock) turn out when `CNC(=O)O[C@@H]1OC=C(C(=O)OC)[C@H]2CC[C@H](C)[C@@H]12` [I-254] was run?
The inhibition at 320 µM (stock) was 4.7%.

With `COC(=O)C1=CO[C@@H](OC(=O)Nc2ccc(Cl)c(Cl)c2)[C@H]2[C@@H]1CC[C@@H]2C` [I-255] as the molecule, how does the inhibition at 320 µM (stock) read?
Its inhibition at 320 µM (stock) is 6.5%.

`COC(=O)C1=CO[C@@H](OC(=O)Nc2ccc(F)cc2F)[C@H]2[C@@H]1CC[C@@H]2C` [I-256] was tested. Which inhibition at 320 µM (stock) did it give?
The inhibition at 320 µM (stock) was 5%.

For `COC(=O)C1=CO[C@@H](OC(=O)Nc2ccccc2F)[C@H]2[C@@H]1CC[C@@H]2C` [I-257], which inhibition at 320 µM (stock) is on record?
The inhibition at 320 µM (stock) was 8%.

For `COC(=O)C1=CO[C@@H](OC(=O)NCCCl)[C@H]2[C@@H]1CC[C@@H]2C` [I-258], which inhibition at 320 µM (stock) is on record?
The inhibition at 320 µM (stock) was 5.7%.

`COC(=O)C1=CO[C@@H](OC(=O)Nc2ccc(Br)cc2)[C@H]2[C@@H]1CC[C@@H]2C` [I-259] was tested. Which inhibition at 320 µM (stock) did it give?
Its inhibition at 320 µM (stock) is 5%.

For `COC(=O)C1=CO[C@@H](OC(=O)Nc2ccc(Cl)cc2)[C@H]2[C@@H]1CC[C@@H]2C` [I-260], which inhibition at 320 µM (stock) is on record?
The inhibition at 320 µM (stock) was 8.9%.

How did the inhibition at 320 µM (stock) turn out when `COC(=O)C1=CO[C@@H](OC(=O)NC(C)C)[C@H]2[C@@H]1CC[C@@H]2C` [I-261] was run?
The inhibition at 320 µM (stock) was 37.5%.

With `CCNC(=O)O[C@@H]1OC=C(C(=O)OC)[C@H]2CC[C@H](C)[C@@H]12` [I-262] as the molecule, how does the inhibition at 320 µM (stock) read?
The inhibition at 320 µM (stock) was 6.3%.

Which inhibition at 320 µM (stock) does the source give for `COC(=O)C1=CO[C@@H](OC(=O)Nc2ccc(OC)cc2)[C@H]2[C@@H]1CC[C@@H]2C` [I-263] here?
The inhibition at 320 µM (stock) was 7.2%.

Which inhibition at 320 µM (stock) does the source give for `COC(=O)C1=CO[C@@H](OC(=O)Nc2ccc(F)cc2)[C@H]2[C@@H]1CC[C@@H]2C` [I-264] here?
The inhibition at 320 µM (stock) was 6.7%.

Which inhibition at 320 µM (stock) does the source give for `COC(=O)C1=CO[C@@H](OC(=O)Nc2ccc(Cl)cc2C(F)(F)F)[C@H]2[C@@H]1CC[C@@H]2C` [I-265] here?
The inhibition at 320 µM (stock) was 6.3%.

For `COC(=O)C1=CO[C@@H](OC(=O)Nc2ccc(OC(F)(F)F)cc2)[C@H]2[C@@H]1CC[C@@H]2C` [I-266], which inhibition at 320 µM (stock) is on record?
Its inhibition at 320 µM (stock) is 9.4%.

For `COC(=O)C1=CO[C@@H](OC(=O)Nc2cccc(C#N)c2)[C@H]2[C@@H]1CC[C@@H]2C` [I-267], which inhibition at 320 µM (stock) is on record?
The inhibition at 320 µM (stock) was 14.9%.

For `CCOC(=O)c1ccc(NC(=O)O[C@@H]2OC=C(C(=O)OC)[C@H]3CC[C@H](C)[C@@H]23)cc1` [I-268], which inhibition at 320 µM (stock) is on record?
The inhibition at 320 µM (stock) was 8.4%.

For `COC(=O)C1=CO[C@@H](OC(=O)Nc2ccc([N+](=O)[O-])cc2)[C@H]2[C@@H]1CC[C@@H]2C` [I-269], which inhibition at 320 µM (stock) is on record?
The inhibition at 320 µM (stock) was 19.5%.

`COC(=O)C1=CO[C@@H](OC(=O)Nc2ccc(C)cc2)[C@H]2[C@@H]1CC[C@@H]2C` [I-270] was tested. Which inhibition at 320 µM (stock) did it give?
The inhibition at 320 µM (stock) was 28.7%.

`COC(=O)C1=CO[C@@H](OC(=O)Nc2ccccc2)[C@H]2[C@@H]1CC[C@@H]2C` [I-271] was tested. Which inhibition at 320 µM (stock) did it give?
The inhibition at 320 µM (stock) was 21.6%.

How did the inhibition at 320 µM (stock) turn out when `COC(=O)C1=CO[C@@H](OC(=O)NC(=O)c2ccccc2)[C@H]2[C@@H]1CC[C@@H]2C` [I-272] was run?
The inhibition at 320 µM (stock) was 5.7%.

Which inhibition at 320 µM (stock) does the source give for `COC(=O)C1=CO[C@@H](OC(=O)Nc2cccc(C(C)=O)c2)[C@H]2[C@@H]1CC[C@@H]2C` [I-273] here?
Its inhibition at 320 µM (stock) is 3.8%.

test system: human umbilical-vein endothelial cells (HUVEC); test: Tube Formation Assay (TFA) Test, HUVEC in collagen gel; type: cell-based; details: Homo sapiens, HUVEC, Tables 75-83; 0.32 mM sample solution; method as for Compounds 1 through 60; read-out: TFA Inhibition rate (%)
Method in brief: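 HUVEC (7th subculture, 1×10^5 cells/ml) attached to collagen gel for 2 h at 37 °C, given sample and overlaid with collagen, then cultured 20 h at 37 °C, 5% CO2 in M-199 with 20% FCS, 30 ng/ml b-FGF and 0.1 μM PMA. Tube length measured by image analysis; % inhibition relative to positive and negative controls.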

For `COC(=O)C1=CO[C@@H](OC(=O)NCCSCc2ccccc2)[C@H]2[C@@H]1CC[C@@H]2C` [I-253], which inhibition at 320 µM (stock) is on record?
The inhibition at 320 µM (stock) was 5.7%.

How did the inhibition at 320 µM (stock) turn out when `CNC(=O)O[C@@H]1OC=C(C(=O)OC)[C@H]2CC[C@H](C)[C@@H]12` [I-254] was run?
Its inhibition at 320 µM (stock) is 4.6%.

For `COC(=O)C1=CO[C@@H](OC(=O)Nc2ccc(Cl)c(Cl)c2)[C@H]2[C@@H]1CC[C@@H]2C` [I-255], which inhibition at 320 µM (stock) is on record?
Its inhibition at 320 µM (stock) is 6%.

Which inhibition at 320 µM (stock) does the source give for `COC(=O)C1=CO[C@@H](OC(=O)Nc2ccc(F)cc2F)[C@H]2[C@@H]1CC[C@@H]2C` [I-256] here?
Its inhibition at 320 µM (stock) is 4%.

With `COC(=O)C1=CO[C@@H](OC(=O)Nc2ccccc2F)[C@H]2[C@@H]1CC[C@@H]2C` [I-257] as the molecule, how does the inhibition at 320 µM (stock) read?
Its inhibition at 320 µM (stock) is 3.5%.

Which inhibition at 320 µM (stock) does the source give for `COC(=O)C1=CO[C@@H](OC(=O)NCCCl)[C@H]2[C@@H]1CC[C@@H]2C` [I-258] here?
The inhibition at 320 µM (stock) was 3.8%.

How did the inhibition at 320 µM (stock) turn out when `COC(=O)C1=CO[C@@H](OC(=O)Nc2ccc(Br)cc2)[C@H]2[C@@H]1CC[C@@H]2C` [I-259] was run?
Its inhibition at 320 µM (stock) is 2.9%.

Which inhibition at 320 µM (stock) does the source give for `COC(=O)C1=CO[C@@H](OC(=O)Nc2ccc(Cl)cc2)[C@H]2[C@@H]1CC[C@@H]2C` [I-260] here?
Its inhibition at 320 µM (stock) is 2.5%.

How did the inhibition at 320 µM (stock) turn out when `COC(=O)C1=CO[C@@H](OC(=O)NC(C)C)[C@H]2[C@@H]1CC[C@@H]2C` [I-261] was run?
Its inhibition at 320 µM (stock) is 32.1%.

Which inhibition at 320 µM (stock) does the source give for `CCNC(=O)O[C@@H]1OC=C(C(=O)OC)[C@H]2CC[C@H](C)[C@@H]12` [I-262] here?
Its inhibition at 320 µM (stock) is 8.8%.

`COC(=O)C1=CO[C@@H](OC(=O)Nc2ccc(OC)cc2)[C@H]2[C@@H]1CC[C@@H]2C` [I-263] was tested. Which inhibition at 320 µM (stock) did it give?
The inhibition at 320 µM (stock) was 5.5%.

`COC(=O)C1=CO[C@@H](OC(=O)Nc2ccc(F)cc2)[C@H]2[C@@H]1CC[C@@H]2C` [I-264] was tested. Which inhibition at 320 µM (stock) did it give?
Its inhibition at 320 µM (stock) is 29.2%.

For `COC(=O)C1=CO[C@@H](OC(=O)Nc2ccc(Cl)cc2C(F)(F)F)[C@H]2[C@@H]1CC[C@@H]2C` [I-265], which inhibition at 320 µM (stock) is on record?
The inhibition at 320 µM (stock) was 3.3%.

`COC(=O)C1=CO[C@@H](OC(=O)Nc2ccc(OC(F)(F)F)cc2)[C@H]2[C@@H]1CC[C@@H]2C` [I-266] was tested. Which inhibition at 320 µM (stock) did it give?
Its inhibition at 320 µM (stock) is 4.9%.

Which inhibition at 320 µM (stock) does the source give for `COC(=O)C1=CO[C@@H](OC(=O)Nc2cccc(C#N)c2)[C@H]2[C@@H]1CC[C@@H]2C` [I-267] here?
Its inhibition at 320 µM (stock) is 5.8%.

Which inhibition at 320 µM (stock) does the source give for `CCOC(=O)c1ccc(NC(=O)O[C@@H]2OC=C(C(=O)OC)[C@H]3CC[C@H](C)[C@@H]23)cc1` [I-268] here?
The inhibition at 320 µM (stock) was 7.6%.

How did the inhibition at 320 µM (stock) turn out when `COC(=O)C1=CO[C@@H](OC(=O)Nc2ccc([N+](=O)[O-])cc2)[C@H]2[C@@H]1CC[C@@H]2C` [I-269] was run?
Its inhibition at 320 µM (stock) is 8.3%.

`COC(=O)C1=CO[C@@H](OC(=O)Nc2ccc(C)cc2)[C@H]2[C@@H]1CC[C@@H]2C` [I-270] was tested. Which inhibition at 320 µM (stock) did it give?
Its inhibition at 320 µM (stock) is 5.9%.

For `COC(=O)C1=CO[C@@H](OC(=O)Nc2ccccc2)[C@H]2[C@@H]1CC[C@@H]2C` [I-271], which inhibition at 320 µM (stock) is on record?
Its inhibition at 320 µM (stock) is 35.1%.

Which inhibition at 320 µM (stock) does the source give for `COC(=O)C1=CO[C@@H](OC(=O)NC(=O)c2ccccc2)[C@H]2[C@@H]1CC[C@@H]2C` [I-272] here?
Its inhibition at 320 µM (stock) is 7.9%.

For `COC(=O)C1=CO[C@@H](OC(=O)Nc2cccc(C(C)=O)c2)[C@H]2[C@@H]1CC[C@@H]2C` [I-273], which inhibition at 320 µM (stock) is on record?
The inhibition at 320 µM (stock) was 17.5%.
